Assays:
Assay type in all cases: cell-based
HIV-1BaL = test: Inhibiting activity to HIV-1 infection to human PBMC (p24 antigen, EIA), HIV-1BaL
Protocol: (§1) Human PBMC (peripheral blood mononuclear cell) was isolated from HIV-negative healthy persons by a Ficol-Hipaque density-gradient centrifugation and incubated for 3 days in the presence of 10 μg/ml PHA (phytohemagglutinin). PHA-stimulated PBMC was suspended in RPMI 1640 containing 10% serum to give a density of 1×10^5 cells/ml and poured into a 96-well microplate. Furthermore, in the presence of a sole test compound in various concentrations or in the co-presence with other anti-HIV inhibitor (such as AZT (zidovudin) or AMD 3100), various HIV-1 cell lines of 50 TCID50 (such as HIV-1LAI, HIV-1NL4-3, HIV-1BaL, HIV-1JRFL, HIV-189.6, HIV-1 HIV-1ERS104pre, HIV-1JSL, HIV-1MM, HIV-1TM and HIV-1MOKW) were exposed. After being incubated for 7 days, the amount of HIV-1p24 antigen on the supernatant liquid of the incubation was measured by an EIA method using Lumipulse F (Fuji Rebio).
(§2) Inhibiting effect to human PBMC infected by HIV-1 HIV-1BaL by the joint use of the compound of Example 2(1) and saquinavir (SQV) which is an anti-HIV inhibitor was investigated. Inhibiting effects of both compounds when the p24 amount where the compounds are not added is defined as 100% are shown in terms of % control.
as §2, with “75(54)” for “2(1)”, “inhibitor […]” for “inhibitor”

HIV-1MM = test: Inhibiting activity to HIV-1 infection to human PBMC (p24 antigen, EIA), multidrug resistant HIV-1; settings: Human immunodeficiency virus 1, PBMC, read-out: IC50, inhibiting effect to infection to human PBMC
Protocol: as §1
(§3) Inhibiting effect of the compound of Example 2(1) to human PBMC infected by wild-type HIV-1 (HIV-1MOKW) and by multidrug resistant HIV-1 (HIV-1JSL and HIV-1MM) to reverse transcriptase inhibitor and protease inhibitor was investigated.

HIV-1JSL = test: as above; settings: Human immunodeficiency virus 1, PBMC, read-out: IC50, inhibiting effect to infection to human PBMC
Protocol: as §1, §3

HIV-1MOKW = test: Inhibiting activity to HIV-1 infection to human PBMC (p24 antigen, EIA), wild-type HIV-1; settings: Human immunodeficiency virus 1, read-out: IC50, inhibiting effect to infection to human PBMC
Protocol: as §1, §3

HIV-189.6 = test: Inhibiting activity to HIV-1 infection to human PBMC (p24 antigen, EIA), HIV-1 89.6
Protocol: as §1
(§4) Inhibiting effect to HIV-1 infection to human PBMC was investigated by the joint use of the compound of Example 2(1) with AMD 3100. The compound of Example 2(1) in various concentrations and AMD 3100 were added either solely or combinably and an assay was carried out. Inhibiting effects of both compounds when the p24 amount where the compounds are not added is defined as 100% are shown in terms of % control.

[1] = test system: Mixed Virus of HIV-1BaL and HIV-1NL4-3 (1:1); test: Inhibiting activity to HIV-1 infection to human PBMC (p24 antigen, EIA), mixed virus; settings: HIV-1BaL + HIV-1NL4-3 (1:1)
Protocol: as §1, §4

[2] = Example 2(1) 0.1 μM + AMD 3100 0.01 μM
[3] = Example 2(1) 0.1 μM + AMD 3100 0.1 μM
[4] = Example 2(1) 1 μM + AMD 3100 0.01 μM
[5] = Example 2(1) 1 μM + AMD 3100 0.1 μM

CCCCN1C(=O)[C@@H]([C@H](O)C2CCCCC2)NC(=O)C12CCN(Cc1ccc(Oc3ccc(C(=O)O)cc3)cc1)CC2.Cl [Example 75(54), (3R)-1-butyl-2,5-dioxo-3-((1R)-1-hydroxy-1-cyclohexylmethyl)-9-(4-(4-carboxyphenyloxy)phenylmethyl)-1,4,9-triazaspiro[5.5]undecane.hydrochloride]
p24 amount, % control (no compound = 100%) (HIV-1BaL; Example 75(54) 0.2 nM + Saquinavir 1 nM): 66.0 % control | p24 amount, % control (no compound = 100%) (HIV-1BaL; Example 75(54) 0.2 nM + Saquinavir 5 nM): 52.0 % control | p24 amount, % control (no compound = 100%) (HIV-1BaL; Example 75(54) 0.2 nM + Saquinavir 25 nM): 5.7 % control | p24 amount, % control (no compound = 100%) (HIV-1BaL; Example 75(54) 0.2 nM alone): 64.2 % control | p24 amount, % control (no compound = 100%) (HIV-1BaL; Example 75(54) 1 nM + Saquinavir 1 nM): 32.8 % control | p24 amount, % control (no compound = 100%) (HIV-1BaL; Example 75(54) 1 nM + Saquinavir 5 nM): 29.3 % control | p24 amount, % control (no compound = 100%) (HIV-1BaL; Example 75(54) 1 nM + Saquinavir 25 nM): 3.8 % control | p24 amount, % control (no compound = 100%) (HIV-1BaL; Example 75(54) 1 nM alone): 34.2 % control | p24 amount, % control (no compound = 100%) (HIV-1BaL; Example 75(54) 5 nM + Saquinavir 1 nM): 10.8 % control | p24 amount, % control (no compound = 100%) (HIV-1BaL; Example 75(54) 5 nM + Saquinavir 5 nM): 6.1 % control | p24 amount, % control (no compound = 100%) (HIV-1BaL; Example 75(54) 5 nM + Saquinavir 25 nM): 1.6 % control | p24 amount, % control (no compound = 100%) (HIV-1BaL; Example 75(54) 5 nM alone): 10.6 % control

CC(C)(C)NC(=O)[C@@H]1C[C@@H]2CCCC[C@@H]2CN1C[C@@H](O)[C@H](Cc1ccccc1)NC(=O)[C@H](CC(N)=O)NC(=O)c1ccc2ccccc2n1 [Saquinavir, saquinavir, reference compound]
p24 amount, % control (no compound = 100%) (HIV-1BaL; Saquinavir 1 nM alone): 78.1 % control | p24 amount, % control (no compound = 100%) (HIV-1BaL; Saquinavir 5 nM alone): 67.7 % control | p24 amount, % control (no compound = 100%) (HIV-1BaL; Saquinavir 0.01 μM alone): 53.8 % control | p24 amount, % control (no compound = 100%) (HIV-1BaL; Saquinavir 25 nM alone): 5.9 % control

CCCCN1C(=O)C(CC2CCCCC2)NC(=O)C12CCN(Cc1ccc3c(c1)OCCO3)CC2.Cl (stereo not shown) [Example 2(1), 9-(1,4-benzodioxan-6-ylmethyl)-1-butyl-3-cyclohexylmethyl-2,5-dioxo-1,4,9-triazaspiro[5.5]undecane.hydrochloride]
p24 amount, % control (no compound = 100%) (HIV-1BaL; Example 2(1) 0.1 μM + Saquinavir 0.01 μM): 44.3 % control | p24 amount, % control (no compound = 100%) (HIV-1BaL; Example 2(1) 0.1 μM alone): 75.4 % control | IC50 (HIV-1MM): 0.048 ± 0.062 µM | IC50 (HIV-1JSL): 0.064 ± 0.011 µM | IC50 (HIV-1MOKW): 0.04 ± 0.029 µM | p24 amount, % control (no compound = 100%) (HIV-189.6; [2]): 38.0 % control | p24 amount, % control (no compound = 100%) (HIV-189.6; [3]): 6.0 % control | p24 amount, % control (no compound = 100%) (HIV-189.6; Example 2(1) 0.1 μM alone): 72.0 % control | p24 amount, % control (no compound = 100%) (HIV-189.6; [4]): 15.1 % control | p24 amount, % control (no compound = 100%) (HIV-189.6; [5]): 0.7 % control | p24 amount, % control (no compound = 100%) (HIV-189.6; Example 2(1) 1 μM alone): 64.5 % control | p24 amount, % control (no compound = 100%) [1, 2]: 32.1 % control | p24 amount, % control (no compound = 100%) [1, 3]: 17.8 % control | p24 amount, % control (no compound = 100%) ([1]; Example 2(1) 0.1 μM alone): 63.8 % control | p24 amount, % control (no compound = 100%) [1, 4]: 10.5 % control | p24 amount, % control (no compound = 100%) [1, 5]: 1.5 % control | p24 amount, % control (no compound = 100%) ([1]; Example 2(1) 1 μM alone): 52.4 % control

c1cc(CN2CCCNCCNCCCNCC2)ccc1CN1CCCNCCNCCCNCC1 [AMD 3100, reference compound]
p24 amount, % control (no compound = 100%) (HIV-189.6; AMD 3100 0.01 μM alone): 58.3 % control | p24 amount, % control (no compound = 100%) (HIV-189.6; AMD 3100 0.1 μM alone): 6.9 % control | p24 amount, % control (no compound = 100%) ([1]; AMD 3100 0.01 μM alone): 59.1 % control | p24 amount, % control (no compound = 100%) ([1]; AMD 3100 0.1 μM alone): 44.2 % control

— patent US7285552B2, “Drugs containing triazaspiro[5.5]undecane derivatives as the active ingredient” (Ono Pharmaceuticals Co., Ltd., priority 2001, dated 2007)
